{
  "source": "patent US20180002319A1",
  "about": "“MACROCYCLIC PICOLINAMIDE COMPOUNDS WITH FUNGICIDAL ACTIVITY” (DOW AGROSCIENCES LLC, priority 2014, published 2018)",
  "assay_type_in_all_cases": "in vivo",
  "key": {"Uncinula necator": {"test_system": "Uncinula necator", "test": "Grape Powdery Mildew (UNCINE) fungicidal activity", "settings": "Erysiphe necator, 24 h, 1DP (1 Day Protectant), read-out: UNCINE Disease Control", "experimental": "Technical grades of materials were dissolved in acetone, which were then mixed with nine volumes of H2O containing 110 ppm Triton X-100. The fungicide solutions were applied onto wheat seedlings using an automated booth sprayer to run-off. All sprayed plants were allowed to air dry prior to further handling. All fungicides were evaluated using the aforementioned method for their activity vs. all target diseases, unless stated otherwise. Wheat leaf blotch and brown rust activity were also evaluated using track spray applications, in which case the fungicides were formulated as EC formulations, containing 0.1% Trycol 5941 in the spray solutions. Wheat plants (variety Yuma) were grown from seed in a greenhouse in 50% mineral soil/50% soil-less Metro mix until the first leaf was fully emerged, with 7-10 seedlings per pot. These plants were inoculated with an aqueous spore suspension of Zymoseptoria tritici either prior to or after fungicide treatments. After inoculation the plants were kept in 100% relative humidity (one day in a dark dew chamber followed by two to three days in a lighted dew chamber at 20° C.) to permit spores to germinate and infect the leaf. The plants were then transferred to a greenhouse set at 20° C. for disease to develop. When disease symptoms were fully expressed on the 1st leaves of untreated plants, infection levels were assessed on a scale of 0 to 100 percent disease severity. Percent disease control was calculated using the ratio of disease severity on treated plants relative to untreated plants. Example E: Evaluation of Fungicidal Activity: Grape Powdery Mildew (Uncinula necator; Bayer Code […]) Grape seedlings (variety Carignane) were grown in soil-less Metro mix, with one plant per pot, and used in the test when approximately one month old. Plants were inoculated 24 hr after fungicide treatment by shaking spores from infected leaves over test plants. Plants were maintained in a greenhouse set at 20° C. until disease was fully developed. Fungicide formulation, application and disease assessment on the sprayed leaves followed the procedures as described in the Example A."}, "Cercospora beticola": {"test_system": "Cercospora beticola", "test": "Leaf Spot of Sugar Beets (CERCBE) fungicidal activity", "settings": "24 h, 1DP (1 Day Protectant), sugar beet, read-out: CERCBE Disease Control", "experimental": "Technical grades of materials were dissolved in acetone, which were then mixed with nine volumes of H2O containing 110 ppm Triton X-100. The fungicide solutions were applied onto wheat seedlings using an automated booth sprayer to run-off. All sprayed plants were allowed to air dry prior to further handling. All fungicides were evaluated using the aforementioned method for their activity vs. all target diseases, unless stated otherwise. Wheat leaf blotch and brown rust activity were also evaluated using track spray applications, in which case the fungicides were formulated as EC formulations, containing 0.1% Trycol 5941 in the spray solutions. Wheat plants (variety Yuma) were grown from seed in a greenhouse in 50% mineral soil/50% soil-less Metro mix until the first leaf was fully emerged, with 7-10 seedlings per pot. These plants were inoculated with an aqueous spore suspension of Zymoseptoria tritici either prior to or after fungicide treatments. After inoculation the plants were kept in 100% relative humidity (one day in a dark dew chamber followed by two to three days in a lighted dew chamber at 20° C.) to permit spores to germinate and infect the leaf. The plants were then transferred to a greenhouse set at 20° C. for disease to develop. When disease symptoms were fully expressed on the 1st leaves of untreated plants, infection levels were assessed on a scale of 0 to 100 percent disease severity. Percent disease control was calculated using the ratio of disease severity on treated plants relative to untreated plants. Example G: Evaluation of Fungicidal Activity: Leaf Spot of Sugar Beets (Cercospora beticola; Bayer Code CERCBE) Sugar beet plants (variety HH88) were grown in soil-less Metro mix and trimmed regularly to maintain a uniform plant size prior to test. Plants were inoculated with a spore suspension 24 hr after fungicide treatments. Inoculated plants were kept in a dew chamber at 22° C. for 48 hr then incubated in a greenhouse set at 24° C. under a clear plastic hood with bottom ventilation until disease symptoms were fully expressed. Fungicide formulation, application and disease assessment on the sprayed leaves followed the procedures as described in the Example A."}, "[1]": {"test_system": "Magnaporthe grisea; Anamorph: Pyricularia oryzae", "test": "whole plant or invertebrate", "settings": "24 h, read-out: PYRIOR Disease Control"}, "Alternaria solani": {"test_system": "Alternaria solani", "test": "Tomato Early Blight (ALTESO) fungicidal activity", "settings": "24 h, 1DP (1 Day Protectant), read-out: ALTESO Disease Control", "experimental": "Technical grades of materials were dissolved in acetone, which were then mixed with nine volumes of H2O containing 110 ppm Triton X-100. The fungicide solutions were applied onto wheat seedlings using an automated booth sprayer to run-off. All sprayed plants were allowed to air dry prior to further handling. All fungicides were evaluated using the aforementioned method for their activity vs. all target diseases, unless stated otherwise. Wheat leaf blotch and brown rust activity were also evaluated using track spray applications, in which case the fungicides were formulated as EC formulations, containing 0.1% Trycol 5941 in the spray solutions. Wheat plants (variety Yuma) were grown from seed in a greenhouse in 50% mineral soil/50% soil-less Metro mix until the first leaf was fully emerged, with 7-10 seedlings per pot. These plants were inoculated with an aqueous spore suspension of Zymoseptoria tritici either prior to or after fungicide treatments. After inoculation the plants were kept in 100% relative humidity (one day in a dark dew chamber followed by two to three days in a lighted dew chamber at 20° C.) to permit spores to germinate and infect the leaf. The plants were then transferred to a greenhouse set at 20° C. for disease to develop. When disease symptoms were fully expressed on the 1st leaves of untreated plants, infection levels were assessed on a scale of 0 to 100 percent disease severity. Percent disease control was calculated using the ratio of disease severity on treated plants relative to untreated plants. Example M: Evaluation of Fungicidal Activity: Tomato Early Blight (Alternaria solani; Bayer Code […]) Tomato plants (variety Outdoor Girl) were propagated in soil-less Metro mix, with each pot having one plant, and used when 12 to 14 days old. Test plants were inoculated with an aqueous spore suspension of Alternaria solani 24 hr after fungicide treatments. After inoculation the plants were kept in 100% relative humidity (one day in a dark dew chamber followed by two to three days in a lighted dew chamber at 20° C.) to permit spores to germinate and infect the leaf. The plants were then transferred to a growth room at 22° C. for disease to develop. Fungicide formulation, application and disease assessment on the sprayed leaves followed the procedures as described in the Example A."}},
  "data": [
    {"smiles": "CCCCO[C@H]1CCOC[C@H](NC(=O)c2nccc(OC)c2OCOC(C)=O)C(=O)O[C@@H](C)[C@@H]1OC(=O)C1CC1", "note": "[Compound 5]", "values": [
      {"measurement": "pest or weed control at 100 ppm", "setting": "Uncinula necator", "result": "< 80", "unit": "%"},
      {"measurement": "pest or weed control at 100 ppm", "setting": "Cercospora beticola", "result": "< 80", "unit": "%"},
      {"measurement": "pest or weed control at 100 ppm", "setting": "[1]", "result": "< 80", "unit": "%"},
      {"measurement": "pest or weed control at 100 ppm", "setting": "Alternaria solani", "result": "< 80", "unit": "%"}
    ]},
    {"smiles": "COc1ccnc(C(=O)N[C@H]2COCC[C@@H](OCC(C)C)[C@@H](OCC(C)C)[C@H](C)OC2=O)c1OCOC(C)=O", "note": "[Compound 6]", "values": [
      {"measurement": "pest or weed control at 100 ppm", "setting": "Uncinula necator", "result": "< 80", "unit": "%"},
      {"measurement": "pest or weed control at 100 ppm", "setting": "Cercospora beticola", "result": "> 80", "unit": "%"},
      {"measurement": "pest or weed control at 100 ppm", "setting": "[1]", "result": "> 80", "unit": "%"},
      {"measurement": "pest or weed control at 100 ppm", "setting": "Alternaria solani", "result": "< 80", "unit": "%"}
    ]},
    {"smiles": "COc1ccnc(C(=O)N[C@H]2CCCC[C@H](Oc3ccccc3)[C@@H](Oc3ccccc3)[C@H](C)OC2=O)c1OCOC(C)=O", "note": "[Compound 19]", "values": [
      {"measurement": "pest or weed control at 100 ppm", "setting": "Uncinula necator", "result": "< 80", "unit": "%"},
      {"measurement": "pest or weed control at 100 ppm", "setting": "Cercospora beticola", "result": "> 80", "unit": "%"},
      {"measurement": "pest or weed control at 100 ppm", "setting": "[1]", "result": "> 80", "unit": "%"},
      {"measurement": "pest or weed control at 100 ppm", "setting": "Alternaria solani", "result": "> 80", "unit": "%"}
    ]},
    {"smiles": "COc1ccnc(C(=O)N[C@H]2COCC[C@H](Cc3ccccc3)[C@@H](OCC(C)C)[C@H](C)OC2=O)c1OC(C)=O", "note": "[Compound 21]", "values": [
      {"measurement": "pest or weed control at 100 ppm", "setting": "Uncinula necator", "result": "> 80", "unit": "%"},
      {"measurement": "pest or weed control at 100 ppm", "setting": "Cercospora beticola", "result": "< 80", "unit": "%"},
      {"measurement": "pest or weed control at 100 ppm", "setting": "Alternaria solani", "result": "> 80", "unit": "%"}
    ]},
    {"smiles": "CCCCCO[C@H]1[C@H](C)OC(=O)[C@@H](NC(=O)c2nccc(OC)c2OCOC(C)=O)CCCC[C@@H]1Oc1ccccc1", "note": "[Compound 17]", "values": [
      {"measurement": "pest or weed control at 100 ppm", "setting": "Uncinula necator", "result": "> 80", "unit": "%"},
      {"measurement": "pest or weed control at 100 ppm", "setting": "Cercospora beticola", "result": "> 80", "unit": "%"},
      {"measurement": "pest or weed control at 100 ppm", "setting": "[1]", "result": "> 80", "unit": "%"},
      {"measurement": "pest or weed control at 100 ppm", "setting": "Alternaria solani", "result": "> 80", "unit": "%"}
    ]},
    {"smiles": "CCCCO[C@H]1CCOC[C@H](NC(=O)c2nccc(OC)c2OCOC(C)=O)C(=O)O[C@@H](C)[C@@H]1OC(=O)c1ccccc1", "note": "[Compound 4]", "values": [
      {"measurement": "pest or weed control at 100 ppm", "setting": "Uncinula necator", "result": "< 80", "unit": "%"},
      {"measurement": "pest or weed control at 100 ppm", "setting": "Cercospora beticola", "result": "< 80", "unit": "%"},
      {"measurement": "pest or weed control at 100 ppm", "setting": "[1]", "result": "> 80", "unit": "%"},
      {"measurement": "pest or weed control at 100 ppm", "setting": "Alternaria solani", "result": "> 80", "unit": "%"}
    ]},
    {"smiles": "COc1ccnc(C(=O)N[C@H]2COCC[C@H](Cc3ccccc3)[C@@H](OCC(C)C)[C@H](C)OC2=O)c1OCOC(C)=O", "note": "[Compound 20]", "values": [
      {"measurement": "pest or weed control at 100 ppm", "setting": "Uncinula necator", "result": "> 80", "unit": "%"},
      {"measurement": "pest or weed control at 100 ppm", "setting": "Cercospora beticola", "result": "> 80", "unit": "%"},
      {"measurement": "pest or weed control at 100 ppm", "setting": "Alternaria solani", "result": "> 80", "unit": "%"}
    ]},
    {"smiles": "COc1ccnc(C(=O)N[C@H]2CCOC[C@H](Oc3ccccc3)[C@@H](Oc3ccccc3)[C@H](C)OC2=O)c1OCOC(C)=O", "note": "[Compound 37]", "values": [
      {"measurement": "pest or weed control at 100 ppm", "setting": "Uncinula necator", "result": "> 80", "unit": "%"},
      {"measurement": "pest or weed control at 100 ppm", "setting": "Cercospora beticola", "result": "> 80", "unit": "%"},
      {"measurement": "pest or weed control at 100 ppm", "setting": "[1]", "result": "> 80", "unit": "%"}
    ]},
    {"smiles": "CCCO[C@H]1[C@H](C)OC(=O)[C@@H](NC(=O)c2nccc(OC)c2OCOC(C)=O)CCCC[C@@H]1Oc1ccccc1", "note": "[Compound 18]", "values": [
      {"measurement": "pest or weed control at 100 ppm", "setting": "Uncinula necator", "result": "< 80", "unit": "%"},
      {"measurement": "pest or weed control at 100 ppm", "setting": "Cercospora beticola", "result": "> 80", "unit": "%"},
      {"measurement": "pest or weed control at 100 ppm", "setting": "[1]", "result": "> 80", "unit": "%"},
      {"measurement": "pest or weed control at 100 ppm", "setting": "Alternaria solani", "result": "> 80", "unit": "%"}
    ]},
    {"smiles": "CCCCO[C@H]1CCOC[C@H](NC(=O)c2nccc(OC)c2OCOC(C)=O)C(=O)O[C@@H](C)[C@@H]1OC(=O)C(C)C", "note": "[Compound 3]", "values": [
      {"measurement": "pest or weed control at 100 ppm", "setting": "Uncinula necator", "result": "< 80", "unit": "%"},
      {"measurement": "pest or weed control at 100 ppm", "setting": "Cercospora beticola", "result": "< 80", "unit": "%"},
      {"measurement": "pest or weed control at 100 ppm", "setting": "[1]", "result": "> 80", "unit": "%"},
      {"measurement": "pest or weed control at 100 ppm", "setting": "Alternaria solani", "result": "> 80", "unit": "%"}
    ]},
    {"smiles": "CCCCO[C@H]1CCOC[C@H](NC(=O)c2nccc(OC)c2OCOC(C)=O)C(=O)O[C@@H](C)[C@@H]1OCc1ccccc1", "note": "[Compound 2]", "values": [
      {"measurement": "pest or weed control at 100 ppm", "setting": "Uncinula necator", "result": "< 80", "unit": "%"},
      {"measurement": "pest or weed control at 100 ppm", "setting": "Cercospora beticola", "result": "> 80", "unit": "%"},
      {"measurement": "pest or weed control at 100 ppm", "setting": "[1]", "result": "> 80", "unit": "%"},
      {"measurement": "pest or weed control at 100 ppm", "setting": "Alternaria solani", "result": "< 80", "unit": "%"}
    ]}
  ]
}
